Assay results taken from patent publication US7585859B2, “PDE4B inhibitors and uses therefor” (Plexxikon, Inc., priority 2004, dated 2009).
Read-outs that look alike come from different tables or passages of the source.

Legend:
PDE4D = molecular target: T1, PDE4D (Homo sapiens, UniProt Q08499); experiment: PDE4 IC50 determination by Scintillation Proximity Assay, PDE4D; assay type: biochemical
T1 construct: PDE4D: The catalytic domain of human PDE4B from S3 16-V692; His6 (N); thrombin cleavage site (N); made in house; host or cells: E. coli
T1 sequence (Q08499 380-756): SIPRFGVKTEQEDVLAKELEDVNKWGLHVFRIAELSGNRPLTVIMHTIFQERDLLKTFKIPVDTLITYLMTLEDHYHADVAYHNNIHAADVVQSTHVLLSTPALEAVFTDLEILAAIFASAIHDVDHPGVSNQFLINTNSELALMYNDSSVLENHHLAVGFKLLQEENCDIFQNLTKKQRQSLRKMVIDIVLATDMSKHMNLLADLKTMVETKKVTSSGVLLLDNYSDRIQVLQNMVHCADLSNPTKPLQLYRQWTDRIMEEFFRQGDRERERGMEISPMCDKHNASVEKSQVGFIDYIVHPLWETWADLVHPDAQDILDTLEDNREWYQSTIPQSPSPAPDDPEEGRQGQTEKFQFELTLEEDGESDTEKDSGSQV
Procedure: (§1) IC50s were determined by Scintillation Proximity Assay (SPA). The principle of the assay is based on the fact that cAMP, the PDE4 substrate, binds weakly to Yittrium Silicate SPA beads, whereas AMP, the product of PDE4 hydrolysis binds strongly. Thus, the extent of PDE4 hydrolysis of a sample of [^3H]cAMP can be measured because only the
(§2) [^3H]AMP produced by PDE4 hydrolysis will bind to the SPA beads and produce a scintillation signal.
(§3) PDE4 enzymes used for IC50 assays were:
(§4) Enzyme was stored in 50% glycerol at −20°.
(§5) In addition to the compound dilutions, each assay plate contained control wells with 1 μl of DMSO (to define 0% enzyme inhibition) or 1 μl of 200 μM roflumilast (to define 100% enzyme inhibition). […] Next, 10 μl of PDE4 enzyme in assay buffer was added and the plates were shaken for 30 s. at 1000 rpm to start the cAMP hydrolysis reaction. The concentrations of enzyme used were: PDE4B, 80 ng/ml; PDE4D, 4 ng/ml; PDE4B2, 2.5 μl of 50% glycerol stock/ml; PDE4D5 0.083 μl of 50% glycerol stock/ml. Assay plates were covered and incubated for 30 min. at 30°. […] The assay plates were covered with clear plastic film, centrifuged for 1 min. at 1000 RPM to settle the SPA beads, and counted using a Wallac TriLux scintillation counter. IC50's were calculated from the raw assay data by non-linear regression curve fitting using the Assay Explorer software package from MDL.

[1] = molecular target: T2, PDE4B: The catalytic domain of human PDE4B from S152-S528 (Homo sapiens, UniProt Q07343); experiment: PDE4 IC50 determination by Scintillation Proximity Assay, PDE4B; assay type: biochemical
T2 construct: His6 (N); thrombin cleavage site (N); made in house; host or cells: E. coli
T2 sequence (Q07343 with tags, fused parts or gaps): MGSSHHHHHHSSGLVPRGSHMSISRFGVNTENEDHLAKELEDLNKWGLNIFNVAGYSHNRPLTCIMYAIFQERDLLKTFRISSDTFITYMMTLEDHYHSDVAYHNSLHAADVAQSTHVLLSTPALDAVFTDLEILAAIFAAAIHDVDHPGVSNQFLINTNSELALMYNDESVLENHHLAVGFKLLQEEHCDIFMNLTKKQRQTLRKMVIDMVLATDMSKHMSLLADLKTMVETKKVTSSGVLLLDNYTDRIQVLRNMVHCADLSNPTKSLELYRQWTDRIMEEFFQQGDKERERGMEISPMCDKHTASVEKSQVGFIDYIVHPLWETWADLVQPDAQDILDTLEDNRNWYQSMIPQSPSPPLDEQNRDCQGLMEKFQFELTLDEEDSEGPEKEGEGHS
Procedure: as §1, §2, §3, §4, §5

[2] = second part of Table 2B (2-23 to 2-103), column 5, column is PDE4D in first part, read-out: IC 50 vs. indicated assay h TNFα
[3] = second part of Table 2B (2-23 to 2-103), column 3, column is PDE4B in first part, read-out: IC 50 vs. indicated assay h TNFα
[4] = Table 1B, Formula I compounds, read-out: IC50 PDE4D
[5] = Table 1B, Formula I compounds, read-out: IC50 PDE4B
[6] = Table 3A, Formula III compounds, read-out: IC50 PDE4D
[7] = Table 3A, Formula III compounds, read-out: IC50 PDE4B
[8] = first part of Table 2B (2-1 to 2-22), read-out: IC 50 vs. indicated assay PDE4D
[9] = first part of Table 2B (2-1 to 2-22), read-out: IC 50 vs. indicated assay PDE4B

Row | IC50 (PDE4D; [4]) [µM] | IC50 [1, 5] [µM] | SMILES | also measured
1 | – | – | Nc1nc(Nc2cccc3ccccc23)sc1C(=O)c1ccccc1 [Compound 2-70, [4-Amino-2-(naphthalen-1-ylamino)-thiazol-5-yl]-phenyl-methanone] | IC50 (PDE4D; [2]): < 10 µM; IC50 [1, 3]: < 10 µM
2 | < 10 | < 10 | Cc1ccc(C(=O)c2sc(Nc3ccc4c(c3)CCC4)c(C#N)c2N)c(C)c1 [Compound 1-157, 4-Amino-5-(2,4-dimethyl-benzoyl)-2-(indan-5-ylamino)-thiophene-3-carbonitrile] | –
3 | – | – | Nc1nc(NC2CCCC2)sc1C(=O)c1ccc(OC(F)F)cc1 [Compound 2-84, (4-Amino-2-cyclopentylamino-thiazol-5-yl)-(4-difluoromethoxy-phenyl)-methanone] | IC50 (PDE4D; [2]): < 10 µM; IC50 [1, 3]: < 10 µM
4 | – | – | COc1cc(NS(=O)(=O)c2ccc(S(=O)(=O)c3ccccc3)s2)c2ncccc2c1 [Compound 3-41, 5-Benzenesulfonyl-thiophene-2-sulfonic acid (6-methoxy-quinolin-8-yl)-amide] | IC50 (PDE4D; [6]): > 10 µM; IC50 [1, 7]: < 10 µM
5 | < 10 | < 10 | N#Cc1c(NC2CCCC2)sc(C(=O)c2ccc(-c3ccccc3)s2)c1N [Compound 1-203, 4-Amino-2-cyclopentylamino-5-(5-phenyl-thiophene-2-carbonyl)-thiophene-3-carbonitrile] | –
6 | > 10 | < 10 | Cc1c(C(=O)c2sc(NC3CCOC3=O)c(C#N)c2N)cnn1-c1ccccc1 (stereo not drawn) [Compound 1-56, 4-Amino-5-(5-methyl-1-phenyl-1H-pyrazole-4-carbonyl)-2-(2-oxo-tetrahydro-furan-3-ylamino)-thiophene-3-carbonitrile] | –
7 | – | – | Nc1nc(NC2CCCC2)sc1C(=O)c1cc(-c2ccc(Cl)cc2)no1 [Compound 2-12, (4-Amino-2-cyclopentylamino-thiazol-5-yl)-[3-(4-chloro-phenyl)-isoxazol-5-yl]-methanone] | IC50 (PDE4D; [8]): < 10 µM; IC50 [1, 9]: < 10 µM
8 | > 10 | < 10 | COC(=O)C(CC(C)C)Nc1sc(C(=O)c2ccc(OC)cc2OC)c(N)c1C#N (stereo not drawn) [Compound 1-42, 2-[4-Amino-3-cyano-5-(2,4-dimethoxy-benzoyl)-thiophen-2-ylamino]-4-methyl-pentanoic acid methyl ester] | –
9 | > 10 | < 10 | COC(=O)C(CC(C)C)Nc1sc(C(=O)c2c(-c3ccccc3)noc2C)c(N)c1C#N (stereo not drawn) [Compound 1-60, 2-[4-Amino-3-cyano-5-(5-methyl-3-phenyl-isoxazole-4-carbonyl)-thiophen-2-ylamino]-4-methyl-pentanoic acid methyl ester] | –
10 | < 10 | < 10 | COC(=O)c1ccccc1Nc1sc(C(=O)c2cnn(-c3ccccc3)c2C)c(N)c1C#N [Compound 1-126, 2-[4-Amino-3-cyano-5-(5-methyl-1-phenyl-1H-pyrazole-4-carbonyl)-thiophen-2-ylamino]-benzoic acid methyl ester] | –
11 | – | – | CCOC(=O)c1cc(C(=O)c2sc(Nc3ccc(OC)cc3)nc2N)on1 [Compound 2-2, 5-[4-Amino-2-(4-methoxy-phenylamino)-thiazole-5-carbonyl]-isoxazole-3-carboxylic acid ethyl ester] | IC50 (PDE4D; [8]): < 10 µM; IC50 [1, 9]: < 10 µM
12 | – | – | Nc1nc(Nc2ccc(Oc3ccccc3)cc2)sc1C(=O)C1CCCC1 [Compound 2-101, [4-Amino-2-(4-phenoxy-phenylamino)-thiazol-5-yl]-cyclopentyl-methanone] | IC50 (PDE4D; [2]): > 10 µM; IC50 [1, 3]: > 10 µM
13 | > 10 | < 10 | COC(=O)C(CCSC)Nc1sc(C(=O)c2c(-c3ccccc3)noc2C)c(N)c1C#N (stereo not drawn) [Compound 1-131, 2-[4-Amino-3-cyano-5-(5-methyl-3-phenyl-isoxazole-4-carbonyl)-thiophen-2-ylamino]-4-methylsulfanyl-butyric acid methyl ester] | –
14 | > 10 | < 10 | CCOC(=O)c1cc(C(=O)c2sc(NC(CC(C)C)C(=O)OC)c(C#N)c2N)on1 (stereo not drawn) [Compound 1-137, 5-[3-Amino-4-cyano-5-(1-methoxycarbonyl-3-methyl-butylamino)-thiophene-2-carbonyl]-isoxazole-3-carboxylic acid ethyl ester] | –
15 | – | – | COc1cc(NS(=O)(=O)c2ccc(-c3cc(C(F)(F)F)on3)s2)c2ncccc2c1 [Compound 3-27, 5-(5-Trifluoromethyl-isoxazol-3-yl)-thiophene-2-sulfonic acid (6-methoxy-quinolin-8-yl)-amide] | IC50 (PDE4D; [6]): > 10 µM; IC50 [1, 7]: > 10 µM
16 | – | – | COc1ccc(C(=O)c2sc(Nc3ccccc3)nc2N)cc1 [Compound 2-37, (4-Amino-2-phenylamino-thiazol-5-yl)-(4-methoxy-phenyl)-methanone] | IC50 (PDE4D; [2]): < 10 µM; IC50 [1, 3]: < 10 µM
17 | – | – | COc1cc(NS(=O)(=O)c2ccc(F)cc2)c2ncccc2c1 [Compound 3-55, 4-Fluoro-N-(6-methoxy-quinolin-8-yl)-benzenesulfonamide] | IC50 (PDE4D; [6]): > 10 µM; IC50 [1, 7]: > 10 µM
18 | > 10 | > 10 | N#Cc1c(NCCN2CCCCC2)sc(C(=O)c2ccccc2Cl)c1N [Compound 1-46, 4-Amino-5-(2-chloro-benzoyl)-2-(2-piperidin-1-yl-ethylamino)-thiophene-3-carbonitrile] | –
19 | < 10 | < 10 | CCOC(=O)c1cc(C(=O)c2sc(Nc3ccc(C(=O)NC4CCOC4=O)cc3)c(C#N)c2N)on1 (stereo not drawn) [Compound 1-138] | –
20 | > 10 | > 10 | N#Cc1c(NC2CCOC2=O)sc(C(=O)c2ccccn2)c1N (stereo not drawn) [Compound 1-152, 4-Amino-2-(2-oxo-tetrahydro-furan-3-ylamino)-5-(pyridine-2-carbonyl)-thiophene-3-carbonitrile] | –
21 | < 10 | < 10 | COc1ccc(OC)c(C(=O)c2sc(Nc3ccccc3F)c(C#N)c2N)c1 [Compound 1-92, 4-Amino-5-(2,5-dimethoxy-benzoyl)-2-(2-fluoro-phenylamino)-thiophene-3-carbonitrile] | –
22 | > 10 | < 10 | COC(=O)C(CC(C)C)Nc1sc(C(=O)c2coc3ccccc23)c(N)c1C#N (stereo not drawn) [Compound 1-106, 2-[4-Amino-5-(benzofuran-3-carbonyl)-3-cyano-thiophen-2-ylamino]-4-methyl-pentanoic acid methyl ester] | –
23 | – | – | Cc1ccc2cccnc2c1NS(=O)(=O)c1ccc(Cl)s1 [Compound 3-3, 5-Chloro-thiophene-2-sulfonic acid (7-methyl-quinolin-8-yl)-amide] | IC50 (PDE4D; [6]): > 10 µM; IC50 [1, 7]: > 10 µM
24 | > 10 | > 10 | COc1ccc(OC)c(C(=O)c2sc(NCCN3CCCCC3)c(C#N)c2N)c1 [Compound 1-39, 4-Amino-5-(2,5-dimethoxy-benzoyl)-2-(2-piperidin-1-yl-ethylamino)-thiophene-3-carbonitrile] | –
25 | – | – | N#Cc1cccc(Nc2nc(N)c(C(=O)c3cccc(C(F)(F)F)c3)s2)c1 [Compound 2-56, 3-[4-Amino-5-(3-trifluoromethyl-benzoyl)-thiazol-2-ylamino]-benzonitrile] | IC50 (PDE4D; [2]): < 10 µM; IC50 [1, 3]: < 10 µM
26 | – | – | CSc1nccc(-c2ccc(S(=O)(=O)Nc3cccc4cccnc34)s2)n1 [Compound 3-16, 5-(2-Methylsulfanyl-pyrimidin-4-yl)-thiophene-2-sulfonic acid quinolin-8-ylamide] | IC50 (PDE4D; [6]): < 10 µM; IC50 [1, 7]: < 10 µM
27 | – | – | Nc1nc(Nc2ccc(Oc3ccccc3)cc2)sc1C(=O)c1cccc(Cl)c1 [Compound 2-53, [4-Amino-2-(4-phenoxy-phenylamino)-thiazol-5-yl]-(3-chloro-phenyl)-methanone] | IC50 (PDE4D; [2]): < 10 µM; IC50 [1, 3]: < 10 µM
28 | > 10 | > 10 | COc1ccc(C(=O)c2sc(NCCN3CCCCC3)c(C#N)c2N)c(OC)c1 [Compound 1-41, 4-Amino-5-(2,4-dimethoxy-benzoyl)-2-(2-piperidin-1-yl-ethylamino)-thiophene-3-carbonitrile] | –
29 | – | – | COc1ccc(C(=O)c2sc(NC3CC3)nc2N)cc1 [Compound 2-79, (4-Amino-2-cyclopropylamino-thiazol-5-yl)-(4-methoxy-phenyl)-methanone] | IC50 (PDE4D; [2]): < 10 µM; IC50 [1, 3]: < 10 µM
30 | < 10 | < 10 | COC(=O)C(CC(C)C)Nc1sc(C(=O)c2csc3ccccc23)c(N)c1C#N (stereo not drawn) [Compound 1-121, 2-[4-Amino-5-(benzo[b]thiophene-3-carbonyl)-3-cyano-thiophen-2-ylamino]-4-methyl-pentanoic acid methyl ester] | –
